Drawing on US9890147B2 (BAYER PHARMA AKTIENGESELLSCHAFT, priority 2012, dated 2018), this text covers IC50 for 21 compounds.

This test concerns the target T1, BRD4 (BD1) (Homo sapiens, UniProt O60885).
T1 construct: with relatively long constructs also being possible, preferably amino acids 44-168; made in house; host or cells: E. coli
In words: Binding assay BRD4/acetylated peptide H4 (TR-FRET protein-protein interaction assay). The text has this:
Binding Assay BRD4/Acetylated Peptide H4 (“PRO”)
To assess the BRD4 binding of the substances described in the present application, their ability to inhibit the interaction between BRD4 (BD1) and acetylated histone H4 in a dose-dependent manner was quantified (Filippakopoulos et al., Cell, 2012, 149: 214-231).
For this purpose, use was made of a time-resolved fluorescence resonance energy transfer (TR-FRET) assay which measured binding between N-terminally His6-tagged BRD4 (BD1) (amino acids 67-152, with relatively long constructs also being possible, preferably amino acids 44-168) and a synthetic acetylated histone H4 (Ac—H4) peptide having the sequence GRGK(Ac)GGK(Ac)GLGK(Ac)GGAK(Ac)RHGSGSK-biotin. The recombinant BRD4 protein-produced according to Filippakopoulos et al., Cell, 2012, 149: 214-231—was expressed in E. coli and purified by (Ni-NTA) affinity and (Sephadex G-75) size exclusion chromatography. The Ac—H4 peptide is commercially available, for example from Biosyntan (Berlin, Germany). In a typical assay, 11 different concentrations of each substance (0.1 nM, 0.33 nM, 1.1 nM, 3.8 nM, 13 nM, 44 nM, 0.15 μM, 0.51 μM, 1.7 μM, 5.9 μM and 20 μM) were measured in duplicate on the same microtitre plate. To this end, 100-fold concentrated solutions in DMSO were prepared by serial dilution (1:3.4) of a 2 mM stock solution in a clear 384-well microtitre platte (Greiner Bio-One, Frickenhausen, Germany) 50 nl of these were transferred into a black test plate (Greiner Bio-One, Frickenhausen, Germany). The test was started by addition of 2 μl of a 2.5-fold concentrated BRD4 solution (final concentration usually 10 nM in the […] of the reaction volume) in aqueous assay buffer [50 mM HEPES pH 7.5. 50 mM sodium chloride (NaCl), 0.25 mM CHAPS and 0.05% serum albumin (BSA)] to the substances in the test plate. This was followed by a 10-minute incubation step at 22° C. to pre-equilibrate putative complexes between BRD4 and the substances.
The mixture was then incubated in the dark for one hour at 22° C. and then for at least 3 hours and at most overnight at 4° C. Formation of BRD4/Ac—H4 complexes was determined by measuring the resonance energy transfer from the streptavidin-Eu cryptate to the anti-6His-XL665 antibody in the reaction. To this end, the fluorescence emission was measured at 620 nm and 665 nm after excitation at 330-350 nm in a TR-FRET measuring device, for example a Rubystar or Pherastar (both from BMG Lab Technologies, Offenburg, Germany) or a Viewlux (Perkin-Elmer). The ratio of the emission at 665 nm and at […] was used as an indicator for the amount of BRD4/Ac—H4 complexes formed.
The data obtained (ratios) were normalized, with 0% inhibition corresponding to the mean of the measured values of a set of controls (usually 32 data points) comprising all reagents. Here, 50 nl of DMSO (100%) were used instead of test substances. An inhibition of 100% corresponded to the mean of the measured values of a set of controls (usually 32 data points) comprising all reagents except for BRD4. The IC50 was determined by regression analysis based on a 4-parameter equation (minimum, maximum, IC50, Hill; Y=Max+(Min−Max)/(1+(X/IC 50)^Hill)).
For orientation: TR-FRET usually uses a lanthanide donor and a delayed reading to cut background.

pIC50: −log10 of the molar value.

`CNC(=O)N1N=C(c2ccc(-c3ccccc3C(=O)O)cc2)c2cc(OC)c(OC)cc2CC1C` (racemic) [Example 6, (±)-4′-{7,8-dimethoxy-4-methyl-3-[(methylamino)carbonyl]-4,5-dihydro-3H-2,3-benzodiazepin-1-yl}biphenyl-2-carboxylic acid]: the pIC50 was 6.04.

`CNC(=O)N1N=C(c2ccc(N3CCC(CCO)CC3)cc2)c2cc(OC)c(OC)cc2CC1C` (racemic) [Example 183, (±)-1-{4-[4-(2-hydroxyethyl)piperidin-1-yl]phenyl}-7,8-dimcthoxy-N,4-dimethyl-4,5-dihydro-3H-2,3-benzodiazepine-3-carboxamide] gave a pIC50 of 7.40.

`CNC(=O)N1N=C(c2ccc(N3CCC(=O)CC3)cc2)c2cc(OC)c(OC)cc2CC1C` (racemic) [Example 196, (±)-7,8-dimethoxy-N,4-dimethyl-1-[4-(4-oxopiperidin-1-yl)phenyl]-4,5-dihydro-3H-2,3-benzodiazepine-3-carboxamide] had a pIC50 of 7.05. In the case of `CNC(=O)N1N=C(c2ccc(N3CCN(CC(F)(F)F)CC3)cc2)c2cc(OC)c(OC)cc2CC1C` (racemic) [Example 197, (±)-7,8-dimethoxy-N,4-dimethyl-1-{4-[4-(2,2,2-trifluoroethyl)piperazin-1-yl]phenyl}-4,5-dihydro-3H-2,3-benzodiazepine-3-carboxamide], the pIC50 was 7.10. Next, `CNC(=O)N1N=C(c2ccc(N3CCN(C)CC3)cc2)c2cc(O)c(O)cc2CC1C` (racemic) [Example 199, (±)-7,8-Dihydroxy-N,4-dimethyl-1-[4-(4-methylpiperazin-1-yl)phenyl]-4,5-dihydro-3H-2,3-benzodiazepine-3-carboxamide]: 5.99; `CCC1Cc2cc(OC)c(OC)cc2C(c2ccc(N3CCN(C)CC3)cc2)=NN1C(=O)NC` (racemic) [Example 201, (±)-4-ethyl-7,8-dimethoxy-N-methyl-1-[4-(4-methylpiperazin-1-yl)phenyl]-4,5-dihydro-3H-2,3-benzodiazepine-3-carboxamide]: 5.86. On to `CCC1Cc2cc(OC)c(OC)cc2C(c2ccc(N3CCNCC3)cc2)=NN1C(=O)NC` (racemic) [Example 202, (±)-4-ethyl-7,8-dimethoxy-N-methyl-1-[4-(piperazin-1-yl)phenyl]-4,5-dihydro-3H-2,3-benzodiazepine-3-carboxamide], for which the pIC50 was 5.91. Compound `CCC1Cc2cc(OC)c(OC)cc2C(c2ccc(N3CC(F)C3)cc2)=NN1C(=O)NC` (racemic) [Example 204, (±)-4-ethyl-1-[4-(3-fluoroazetidin-1-yl)phenyl]-7,8-dimethoxy-N-methyl-4,5-dihydro-3H-2,3-benzodiazepine-3-carboxamide] showed a pIC50 of 5.91.

Take `CCC1Cc2cc(OC)c(OC)cc2C(c2ccc(N3CCN(C(C)=O)CC3)cc2)=NN1C(=O)NC` (racemic) [Example 205, (±)-1-[4-(4-acetylpiperazin-1-yl)phenyl]-4-ethyl-7,8-dimethoxy-N-methyl-4,5-dihydro-3H-2,3-benzodiazepine-3-carboxamide]: the pIC50 was 5.97. In turn, `CCC1Cc2cc(OC)c(OC)cc2C(c2ccc(N3CCS(=O)(=O)CC3)cc2)=NN1C(=O)NC` (racemic) [Example 206, (±)-1-[4-(1,1-dioxidothiomorpholin-4-yl)phenyl]-4-ethyl-7,8-dimethoxy-N-methyl-4,5-dihydro-3H-2,3-benzodiazepine-3-carboxamide] gave a pIC50 of 6.03.

`CCC1Cc2cc(OC)c(OC)cc2C(c2ccc(N3CCC(O)CC3)cc2)=NN1C(=O)NC` (racemic) [Example 207, (±)-4-ethyl-1-[4-(4-hydroxypiperidin-1-yl)phenyl]-7,8-dimethoxy-N-methyl-4,5-dihydro-3H-2,3-benzodiazepine-3-carboxamide] showed a pIC50 of 5.91. For `CCC1Cc2cc(OC)c(OC)cc2C(c2ccc(N3CCOCC3)cc2)=NN1C(=O)NC` (racemic) [Example 208, (±)-4-ethyl-7,8-dimethoxy-N-methyl-1-[4-(morpholin-4-yl)phenyl]-4,5-dihydro-3H-2,3-benzodiazepine-3-carboxamide], the negative logarithm of the IC50 (pIC50) is 5.96. Next, `CNC(=O)N1N=C(c2ccc(N3CCNCC3)cc2)c2cc(Cl)c(OC(F)(F)F)cc2CC1C` (racemic) [Example 211, (±)-8-chloro-N,4-dimethyl-1-[4-(piperazin-1-yl)phenyl]-7-(trifluoromethoxy)-4,5-dihydro-3H-2,3-benzodiazepine-3-carboxamide]: 6.52; `CNC(=O)N1N=C(c2ccc(N3CCN(S(C)(=O)=O)CC3)cc2)c2cc(Cl)c(OC(F)(F)F)cc2CC1C` (racemic) [Example 214, (±)-8-chloro-N,4-dimethyl-1-{4-[4-(methylsulphonyl)piperazin-1-yl]phenyl}-7-(trifluoromethoxy)-4,5-dihydro-3H-2,3-benzodiazepine-3-carboxamide]: 5.91.

On to `CNC(=O)N1N=C(c2ccc(N3CCN(C(C)=O)CC3)cc2)c2ccc(OC(F)(F)F)cc2CC1C` (racemic) [Example 217, (±)-1-[4-(4-acetylpiperazin-1-yl)phenyl]-N,4-dimethyl-7-(trifluoromethoxy)-4,5-dihydro-3H-2,3-benzodiazepine-3-carboxamide], for which the pIC50 was 5.76. Regarding `CCC1Cc2cc(OC)c(OC)cc2C(c2ccc(-c3ccc(F)cc3)cc2)=NN1C(=O)NC` (racemic) [Example 221, (±)-4-ethyl-1-(4′-fluorobiphenyl-4-yl)-7,8-dimethoxy-N-methyl-4,5-dihydro-3H-2,3-benzodiazepine-3-carboxamide], the negative-log IC50 (pIC50) was 5.70. The same measure for `CCC1Cc2cc(OC)c(OC)cc2C(c2ccc(-c3c(C)noc3C)cc2)=NN1C(=O)NC` (racemic) [Example 223, (±)-1-[4-(3,5-dimethyl-1,2-oxazol-4-yl)phenyl]-4-ethyl-7,8-dimethoxy-N-methyl-4,5-dihydro-3H-2,3-benzodiazepine-3-carboxamide]: 6.49; for `CNC(=O)N1N=C(c2ccc(-c3c(C)nn(C)c3C)cc2)c2cc(OC)c(OC)cc2CC1C(C)C` (racemic) [Example 224, (±)-4-isopropyl-7,8-dimethoxy-N-methyl-1-[4-(1,3,5-trimethyl-1H-pyrazol-4-yl)phenyl]-4,5-dihydro-3H-2,3-benzodiazepine-3-carboxamide]: 5.11; for `CCC1Cc2cc(OC)c(OC)cc2C(c2ccc(N3CCCC3=O)cc2)=NN1C(=O)NC` (racemic) [Example 225, (±)-4-ethyl-7,8-dimethoxy-N-methyl-1-[4-(2-oxopyrrolidin-1-yl)phenyl]-4,5-dihydro-3H-2,3-benzodiazepine-3-carboxamide]: 5.76. In turn, `CCC1Cc2cc(OC)c(OC)cc2C(c2ccc(N3CCOCC3=O)cc2)=NN1C(=O)NC` (racemic) [Example 226, (±)-4-ethyl-7,8-dimethoxy-N-methyl-1-[4-(3-oxomorpholin-4-yl)phenyl]-4,5-dihydro-3H-2,3-benzodiazepine-3-carboxamide] showed a pIC50 of 5.06. The same measure for `CCC1Cc2cc(OC)c(OC)cc2C(c2ccc(N3CCCCC3=O)cc2)=NN1C(=O)NC` (racemic) [Example 227, (±)-4-ethyl-7,8-dimethoxy-N-methyl-1-[4-(2-oxopiperidin-1-yl)phenyl]-4,5-dihydro-3H-2,3-benzodiazepine-3-carboxamide]: 5.20.

One may read the pIC50 as −log10 of the IC50, conventionally taken in molar units. Higher therefore signals a small IC50.
